Results on six compounds are retold here after patent US7485755B2, “Acid addition salt of carbasugar amine derivative” (Seikagaku Corporation, priority 2003, dated 2009).

Series [1] deals with T1, bovine sperm-derived β-D-galactosidase (Bos taurus, UniProt Q58D55).
T1 construct: bovine sperm-derived β-D-galactosidase (manufactured by Signa); purchased Sigma; host or cells: bovine sperm (tissue-derived)
T1 sequence (Q58D55 28-653): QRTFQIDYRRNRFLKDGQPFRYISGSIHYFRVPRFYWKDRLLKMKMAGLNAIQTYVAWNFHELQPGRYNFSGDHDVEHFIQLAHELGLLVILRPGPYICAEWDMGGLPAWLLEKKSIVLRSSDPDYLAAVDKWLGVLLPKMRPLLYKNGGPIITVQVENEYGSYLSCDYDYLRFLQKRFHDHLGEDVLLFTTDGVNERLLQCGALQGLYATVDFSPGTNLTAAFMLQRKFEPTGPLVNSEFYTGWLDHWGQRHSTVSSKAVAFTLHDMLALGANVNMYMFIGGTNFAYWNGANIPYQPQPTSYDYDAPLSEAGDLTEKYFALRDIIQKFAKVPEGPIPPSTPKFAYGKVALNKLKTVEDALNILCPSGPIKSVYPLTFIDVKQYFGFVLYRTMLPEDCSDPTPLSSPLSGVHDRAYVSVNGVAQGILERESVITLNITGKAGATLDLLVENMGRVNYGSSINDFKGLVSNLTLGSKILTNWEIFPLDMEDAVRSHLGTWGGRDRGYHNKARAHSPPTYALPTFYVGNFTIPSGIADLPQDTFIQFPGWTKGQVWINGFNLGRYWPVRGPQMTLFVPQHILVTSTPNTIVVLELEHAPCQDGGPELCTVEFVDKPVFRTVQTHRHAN
Description: Measurement of acidic β-galactosidase inhibitory activity (4-methylumbelliferyl substrate, fluorescence). The conditions noted are these: 0.2 M acetate buffer pH 4.4, 25° C., 30 minutes; read-out: 50% Inhibition concentration (IC50 value). The format is biochemical. As for the experimental part:
Each of Substances A-2 to 7 of the invention dissolved in water for injection, to which DMSO had been added and dissolved therein, if necessary, was diluted with a 0.2 M acetate buffer (pH 4.4) to give a concentration of 0.05, 0.125, 0.25, 0.5, 1.0, 2.5 or 5.0 μM and added at 25 μl into a 96 well microplate. Then, a 0.2 M acetate buffer (pH 4.4) solution of bovine sperm-derived β-D-galactosidase (manufactured by Signa) was added at 25 μl, and 4-methylumbelliferyl-β-D-galactopyranoside (10 μM) was further added as a fluorescence substrate at 50 μl, followed by incubation at 25° C. for 30 minutes. Then, the reaction was stopped by adding 100 μl of 2 M Na2CO3, and an amount of 4-methylumbelliferone released by the enzyme reaction (fluorescence intensity) was measured (excitation wavelength 355 nm, measuring wavelength 460 nm) by a fluorescence reader (product name; ARVOSX manufactured by WALLAC). An amount of the 4-methylumbelliferone released at the time of not adding the inhibitor was defined as 100%, and quantitative change in the 4-methylumbelliferone formed by addition of each substance to be evaluated was relatively evaluated. In addition, as the 50% inhibition concentration (IC50 value), the concentration of each substance of the invention which reduces 50% of the concentration of 4-methylumbelliferone at the time of un-adding each substance of the invention was calculated from an inhibition curve.

Series [2] can be described thus: Solubility test in distilled water. The format is physicochemical. The conditions noted are these: thermodynamic from solid.

SMILES strings stand for the structures. pIC50: −log10 of the molar value. Where only a bound is given, the exact number is not on record here.

For `CCCCCCCCN[C@@H]1C=C(CO)[C@H](O)[C@H](O)[C@H]1O` [Substance A-2], in series [1], the pIC50 is 6.32. Further, the solubility in series [2] (distilled water, water, 24° C.) was at least 300 mg/mL.

Turning to `CCCCCCCCCCN[C@@H]1C=C(CO)[C@H](O)[C@H](O)[C@H]1O` [Substance A-3], the pIC50 in series [1] was 6.52.

Turning to `CCCCCCCCCCCCN[C@@H]1C=C(CO)[C@H](O)[C@H](O)[C@H]1O` [Substance A-4], the pIC50 in series [1] is 5.84.

On to `CCCCCCCCCCCCCCN[C@@H]1C=C(CO)[C@H](O)[C@H](O)[C@H]1O` [Substance A-5], for which, in series [1], the pIC50 was 5.57.

In the case of `CCCCCCCCCCCCCCCCCCN[C@@H]1C=C(CO)[C@H](O)[C@H](O)[C@H]1O` [Substance A-6], the pIC50 in series [1] was 5.75.

The compound `CCCCCCCCNC1C=C(CO)C(O)C(O)C1O` (stereo not shown) [Substance B-2] registered a solubility in series [2] (19° C., distilled water added to 5.4 mg of sample) of over 108 mg/mL.
